Each molecule was assayed against T1, Menin-MLL (Homo sapiens, UniProt O00255) (assay: Inhibitory activity against Menin-MLL binding (fluorescence polarization)). Details: Menin-MLL IC50, fluorescence polarization; 150 nM His-Menin, 15 nM FITC-MLL; 25°C for 60 min.
T1 construct: His-Menin (M1-L615 end); purchased BIORTUS BP9210
T1 sequence (O00255 1-615 isoform O00255-1): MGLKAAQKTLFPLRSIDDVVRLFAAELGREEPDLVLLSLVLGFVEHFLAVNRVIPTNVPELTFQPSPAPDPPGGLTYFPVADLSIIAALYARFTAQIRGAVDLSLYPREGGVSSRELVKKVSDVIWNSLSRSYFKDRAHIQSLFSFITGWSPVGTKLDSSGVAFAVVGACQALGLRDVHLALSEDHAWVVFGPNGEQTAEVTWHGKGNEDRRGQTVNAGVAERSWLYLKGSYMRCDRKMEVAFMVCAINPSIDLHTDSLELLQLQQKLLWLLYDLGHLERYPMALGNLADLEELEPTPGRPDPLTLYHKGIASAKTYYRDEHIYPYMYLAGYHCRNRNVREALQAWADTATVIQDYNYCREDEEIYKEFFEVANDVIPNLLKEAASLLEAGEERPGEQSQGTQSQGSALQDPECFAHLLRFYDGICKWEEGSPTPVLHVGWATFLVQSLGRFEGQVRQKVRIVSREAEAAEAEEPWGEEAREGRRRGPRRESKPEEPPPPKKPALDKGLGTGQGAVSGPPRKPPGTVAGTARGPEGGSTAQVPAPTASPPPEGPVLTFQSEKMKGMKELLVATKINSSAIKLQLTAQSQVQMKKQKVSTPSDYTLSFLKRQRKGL
How it was run: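 Fluorescence polarization competition: compound and 150 nM His-tagged menin (residues M1-L615) sit 15 min at 25 °C in pH 7.5 HEPES buffer with NaCl, DTT and BSA; 15 nM FITC-labelled MLL peptide then binds for 60 min. IC50 fitted sigmoidally from mP values, duplicate wells.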

Going from CCOC(=O)N1CCN(CCC[C@H](C(C)C)N2CC(c3cc(-c4ccc(F)cc4C(=O)N(CC)C(C)C)c4cnc(C)n4c3)C2)CC1 [Example 471] to CCN(C(=O)c1cc(F)ccc1-c1cc(C2CN(C(=O)[C@H]3NC[C@@H]4CCC[C@@H]43)C2)cn2c(C)nc(F)c12)C(C)C [Example 274], the IC50 rises from 4.8 nM to 19.5 nM (4.1-fold).

CCS(=O)(=O)N[C@H]1CC[C@H](CN2CC(Cc3cc(-c4ccc(F)cc4C(=O)N(CC(F)F)C(C)C)c4cnn(C)c4c3)C2)CC1 [Example 161, N-(2,2-difluoroethyl)-5-fluoro-2-{1-methyl-6-[(1-{[(1r,4r)-4-ethanesulfonamidocyclohexyl]methyl}azacyclobutan-3-yl)methyl]-1H-indazol-4-yl}-N-(isopropyl)benzamide] and CCN(C(=O)c1cc(F)ccc1-c1cc(C2CCN(C[C@H]3CC[C@H](NS(=O)(=O)CC)CC3)C2)cn2cncc12)C(C)C (mixture of isomers) [Example 22, N-ethyl-5-fluoro-N-isopropyl-2-[6-(1-{[(1r,4r)-4-ethanesulfonamidocyclohexyl]methyl}pyrrolidin-3-yl)imidazo[1,5-a]pyridin-8-yl]benzamide] are within 1.5-fold of each other in IC50: 33.5 nM for the first, 25 nM for the second.

Same assay, conditions: fluorescence polarization; 150 nM His-Menin, 15 nM FITC-MLL; 25°C for 60 min; read-out: Menin-MLL IC50

Going from CCN(C(=O)c1cc(F)ccc1-c1cc(C2CN(C(C[C@@H]3CNCCO3)C(C)C)C2)cn2c(C)ncc12)C(C)C (stereo partly drawn) [Example 462, N-ethyl-5-fluoro-2-[3-methyl-6-(1-{3-methyl-1-[(2R)-morpholin-2-yl]butan-2-yl}azacyclobutan-3-yl)imidazo[1,5-a]pyridin-8-yl]-N-(isopropyl)benzamide] to CCN(C(=O)c1cc(F)ccc1-c1cc(C2CN([C@H](CCCN3CCNC4(COC4)C3)C(C)C)C2)cn2c(C)ncc12)C(C)C [Example 483, N-ethyl-5-fluoro-2-(3-methyl-6-{1-[(3R)-2-methyl-6-{2-oxa-5,8-diazaspiro[3.5]non-8-yl}hexan-3-yl]azacyclobutan-3-yl}imidazo[1,5-a]pyridin-8-yl)-N-(isopropyl)benzamide], the IC50 rises from 11 nM to 19 nM (1.7-fold). The first is the more potent here.

Going from CCN(C(=O)c1cc(F)ccc1-c1cc(C2CN([C@@H](CCCN3CCC(OC)CC3)C(C)C)C2)cc2c1cnn2C)C(C)C [Example 399-1, N-ethyl-5-fluoro-2-(6-{1-[(3S)-6-(4-methoxypiperidin-1-yl)-2-methylhexan-3-yl]azacyclobutan-3-yl}-1-methyl-1H-indazol-4-yl)-N-(isopropyl)benzamide] to CCN1CCN(CCC[C@@H](C(C)C)N2CC(c3cc(-c4ccc(F)cc4C(=O)N(CC)C(C)C)c4cnn(C)c4c3)C2)CC1 [Example 394-1, N-ethyl-2-(6-{1-[(3S)-6-(4-ethylpiperazin-1-yl)-2-methylhexan-3-yl]azacyclobutan-3-yl}-1-methyl-1H-indazol-4-yl)-5-fluoro-N-(isopropyl)benzamide], the IC50 rises from 110 nM to 188 nM (1.7-fold).

Compared with CCN(C(=O)c1cc(F)ccc1-c1cc(N2CCN(C(=O)[C@@H]3CCCNC3)CC2)cn2c(C)ncc12)C(C)C [Example 124], CCN(C(=O)c1cc(F)ccc1-c1cc(C2CN(C(C)C3CCN(C(C)=O)CC3)C2)cn2c(C)ncc12)C(C)C (centres unmarked) [Example 281] is 12-fold lower in IC50: 80.5 nM for the first, 7 nM for the second.

Going from Cc1nc(F)c2c(-c3ccc(F)cc3C(=O)N3CCOC[C@H]3C)cc(C3CN(C[C@H]4CC[C@@H](c5cnn(C)c5)CC4)C3)cn12 [Example 276-1, (3R)-4-{5-fluoro-2-[1-fluoro-3-methyl-6-(1-{[(1s,4s)-4-(1-methyl-1H-pyrazol-4-yl)cyclohexyl]methyl}azacyclobutan-3-yl)imidazo[1,5-a]pyridin-8yl]benzoyl}-3-methylmorpholine] to CCOC(=O)N1CCC(CN2CC(c3cc(-c4ccc(F)cc4C(=O)N4CCOC[C@H]4C)c4c(F)nc(C)n4c3)C2)CC1 [Example 270], the IC50 rises from 15 nM to 24 nM (1.6-fold).

CC(=O)N1CCN(CCC[C@H](C(C)C)N2CC(c3cc(-c4ccc(F)cc4C(=O)N4CCOC[C@H]4C)c4c(F)nc(C)n4c3)C2)C2(CC2)C1 [Example 334] and CC(=O)N1CCC([C@@H](C(C)C)N2CC(c3cc(-c4ccc(F)cc4C(=O)N4CCOC[C@H]4C)c4c(F)nc(C)n4c3)C2)CC1 [Example 357-2, 1-{4-[(1R)-1-[3-(1-fluoro-8-{4-fluoro-2-[(3R)-3-methylmorpholin-4-carbonyl]phenyl}-3-methylimidazo[1,5-a]pyridin-6-yl)azacyclobutan-1-yl]-2-methylpropyl]piperidin-1-yl}ethan-1-one] are within 1.5-fold of each other in IC50: 30 nM for the first, 22 nM for the second.

First: CCN(C(=O)c1cc(F)ccc1-c1cc(N2CCN(C(=O)C3NCCc4ccccc43)CC2)cn2c(C)nc(Cl)c12)C(C)C (centres unmarked) [Example 122]
Second: CCN(C(=O)c1cc(F)ccc1-c1cc(C2CN([C@@H](CN3CCS(=O)(=O)CC3)C(C)C)C2)cn2c(C)ncc12)C(C)C [Example 441-2, 2-(6-{1-[(2R)-1-(1,1-dioxo-thiomorpholin-4-yl)-3-methylbutan-2-yl]azacyclobutan-3-yl}-3-methylimidazo[1,5-a]pyridin-8-yl)-N-ethyl-5-fluoro-N-(isopropyl)benzamide]
The IC50 of the first is 2-fold higher: 217 nM for the first, 110 nM for the second.

Cc1nc(F)c2c(-c3ccc(F)cc3C(=O)N3CCOC[C@H]3C)cc(C3CN([C@@H](C)C4CCN(C(=O)C(C)(F)F)CC4)C3)cn12 [Example 302] and Cc1nc(F)c2c(-c3ccc(F)cc3C(=O)N3CCOC[C@H]3C)cc(C3CN([C@@H](C)C4CCN(C(=O)C(F)F)CC4)C3)cn12 [Example 300] are within 1.5-fold of each other in IC50: 22 nM for the first, 24 nM for the second.

Going from CCS(=O)(=O)NC1CCC(CN2CC(c3cc(-c4ccc(F)cc4C(=O)N(CC(F)F)C(C)C)c4cnccn34)C2)CC1 (centres unmarked) [Example 143, N-(2,2-difluoroethyl)-2-(6-{1-[(4-ethanesulfonamidocyclohexyl)methyl]azacyclobutan-3-yl}pyrrolo[1,2-a]pyrazin-8-yl)-5-fluoro-N-(isopropyl)benzamide] to CCN(C(=O)c1cc(F)ccc1-c1cc(C2CCN(C[C@H]3CC[C@H](NC(=O)OC(C)(C)C)CC3)C2)cn2cncc12)C(C)C (mixture of isomers) [Example 21, N-[(1r,4r)-4-{[3-(8-{2-[ethyl(isopropyl)aminoformyl]-4-fluorophenyl}imidazo[1,5-a]pyridin-6-yl)pyrrolidin-1-yl]methyl}cyclohexyl]tert-butyl carbamate], the IC50 rises from 2.7 nM to 18.5 nM (6.9-fold).

Compared with COCCN(C)CCC[C@@H](C(C)C)N1CC(c2cc(-c3ccc(F)cc3C(=O)N3[C@H](C)COC[C@H]3C)c3cnn(C)c3c2)C1 [Example 186-1, [(4S)-4-[3-(4-{2-[(3R,5R)-3,5-dimethylmorpholin-4-carbonyl]-4-fluorophenyl}-1-methyl-1H-indazol-6-yl)azacyclobutan-1-yl]-5-methylhexyl](2-methoxyethyl)methylamine], COCCN(C)CCCC(C(C)C)N1CC(Cc2cc(-c3ccc(F)cc3C(=O)N3CCOC[C@H]3C)c3cnn(C)c3c2)C1 (some centres unmarked) [Example 179] is 2.9-fold lower in IC50: 262 nM for the first, 89 nM for the second.

Compared with CCC(=O)N1CCC(C(C)N2CC(c3cc(-c4ccc(F)cc4C(=O)N4CCOC[C@H]4C)c4cnc(C)n4c3)C2)CC1 (stereo partly drawn) [Example 319, 1-(4-{1-[3-(8-{4-fluoro-2-[(3R)-3-methylmorpholin-4-carbonyl]phenyl}-3-methylimidazo[1,5-a]pyridin-6-yl)azacyclobutan-1-yl]ethyl}piperidin-1-yl)propan-1-one], Cc1nc(F)c2c(-c3ccc(F)cc3C(=O)N3CCOCC3C)cc(C3CN(C(C)C4CCN(C(=O)CC#N)CC4)C3)cn12 (centres unmarked) [Example 263-1] is 3.9-fold higher in IC50: 19 nM for the first, 74 nM for the second. The first is the more potent here.

Going from CCN(C(=O)c1cc(F)ccc1-c1cc(C2=CCC(NCc3ccc(-c4cc(OC)c(OC)nn4)cc3)CC2)n2ccncc12)C(C)C (centres unmarked) [Example 4, 2-{6-[4-({[4-(5,6-dimethoxypyridazin-3-yl)phenyl]methyl}amino)cyclohexyl-1-ene-1-yl]pyrrolo[1,2-a]pyrazin-8-yl}-N-ethyl-5-fluoro-N-isopropylbenzamide] to CCN(C(=O)c1cc(F)ccc1-c1cc(C2CN([C@H](CCCN3CCN(CCO)C(=O)C3)C(C)C)C2)cn2c(C)ncc12)C(C)C [Example 486, N-ethyl-5-fluoro-2-(6-{1-[(3R)-6-[4-(2-hydroxyethyl)-3-oxopiperazin-1-yl]-2-methylhexan-3-yl]azacyclobutan-3-yl}-3-methylimidazo[1,5-a]pyridin-8-yl)-N-(isopropyl)benzamide], the IC50 falls from 17.5 nM to 4.2 nM (4.2-fold).

Going from CCN(C(=O)c1cc(F)ccc1-c1nc(C2CN([C@H](CCCN3CCN(CCC#N)CC3)C(C)C)C2)cn2c(C)ncc12)C(C)C [Example 492] to COCCN(C)CCC[C@@H](C(C)C)N1CC(c2cc(-c3ccc(F)cc3C(=O)N3CCOC[C@H]3C)c3c(F)nc(C)n3c2)C1 [Example 200-2], the IC50 falls from 270 nM to 75 nM (3.6-fold).

Molecule Cc1nc(F)c2c(-c3ccc(F)cc3C(=O)N3CCOC[C@H]3C)cc(C3CN([C@@H](CO[C@@H]4CCCN(C)C4)C(C)C)C3)cn12 [Example 297-2, (3R)-4-[5-fluoro-2-(1-fluoro-3-methyl-6-{1-[(2R)-3-methyl-1-{[(3R)-1-methylpiperidin-3-yl]oxy}butan-2-yl]azacyclobutan-3-yl}imidazo[1,5-a]pyridin-8yl)benzoyl]-3-methylmorpholine] has an IC50 of 13.5 nM.

Source: patent EP4782453A1 (Beyang Therapeutics Co., Ltd., priority 2023, dated 2025)
